# Measurements from ChEMBL document CHEMBL1147500, “A prodrug approach to COX-2 inhibitors with methylsulfone” (Bioorg Med Chem Lett, 2004).
# Assays:
# [1] = Tmax value at a dose of 10 mg/kg in male SD rats; format: ADME, organism-based; design: dose 10 mg/kg; details: rat, in vivo
# [2] = Area under curve (0-24 hr) at a dose of 10 mg/kg in male SD rats; format: ADME, organism-based; design: time < 24 hr, dose 10 mg/kg; details: rat, in vivo
# [3] = Cmax value at a dose of 10 mg/kg in male SD rats; format: ADME, organism-based; design: dose 10 mg/kg; details: rat, in vivo
# Rattus norvegicus [4] = test: Inhibition of adjuvant-induced arthritis (AA) in SD rats upon peroral administration (BID) at 0.1 mg/kg/day; format: functional; details: route oral
# Rattus norvegicus [5] = test: Effective dose against adjuvant-induced arthritis (AA) in male lewis rats upon peroral administration (bid); format: functional; details: po
# Rattus norvegicus [6] = test: Inhibition of adjuvant-induced arthritis (AA) in SD rats upon peroral administration (BID) at 0.3 mg/kg/day; format: functional; details: route oral
# [7] = biological target: T1, Prostaglandin G/H synthase 1 (Mus musculus, UniProt P22437); test: Inhibitory concentration against prostaglandin G/H synthase 1 in mouse peritoneal macrophages
# T1 sequence (P22437 whole entry): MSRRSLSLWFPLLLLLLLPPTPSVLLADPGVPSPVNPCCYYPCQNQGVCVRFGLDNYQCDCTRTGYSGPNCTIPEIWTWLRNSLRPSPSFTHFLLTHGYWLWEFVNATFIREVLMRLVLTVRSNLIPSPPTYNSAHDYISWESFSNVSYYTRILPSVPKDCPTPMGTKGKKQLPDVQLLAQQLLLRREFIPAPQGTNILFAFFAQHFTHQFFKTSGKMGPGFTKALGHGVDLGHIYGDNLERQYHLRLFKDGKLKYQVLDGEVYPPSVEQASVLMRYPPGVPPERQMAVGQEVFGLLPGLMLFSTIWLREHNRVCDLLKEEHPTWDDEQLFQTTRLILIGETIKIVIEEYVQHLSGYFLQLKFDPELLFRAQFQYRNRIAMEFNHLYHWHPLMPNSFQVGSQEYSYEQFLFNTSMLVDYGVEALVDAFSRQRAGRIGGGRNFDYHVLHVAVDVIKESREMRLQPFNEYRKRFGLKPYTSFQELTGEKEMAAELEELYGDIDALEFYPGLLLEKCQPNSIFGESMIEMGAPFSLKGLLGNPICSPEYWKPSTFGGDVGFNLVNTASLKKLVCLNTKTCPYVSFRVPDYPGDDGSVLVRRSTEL
# [8] = Area under curve (0-24 hr) at a dose of 100 mg/kg in male SD rats; format: ADME, organism-based; design: time < 24 hr, dose 100 mg/kg; details: rat, in vivo
# [9] = Cmax value at a dose of 50 mg/kg in male SD rats; format: ADME, organism-based; design: dose 50 mg/kg; details: rat, in vivo
# [10] = biological target: T2, Prostaglandin G/H synthase 2 (Mus musculus, UniProt Q05769); test: Inhibitory concentration against prostaglandin G/H synthase 2 in mouse peritoneal macrophages
# T2 sequence (Q05769 whole entry): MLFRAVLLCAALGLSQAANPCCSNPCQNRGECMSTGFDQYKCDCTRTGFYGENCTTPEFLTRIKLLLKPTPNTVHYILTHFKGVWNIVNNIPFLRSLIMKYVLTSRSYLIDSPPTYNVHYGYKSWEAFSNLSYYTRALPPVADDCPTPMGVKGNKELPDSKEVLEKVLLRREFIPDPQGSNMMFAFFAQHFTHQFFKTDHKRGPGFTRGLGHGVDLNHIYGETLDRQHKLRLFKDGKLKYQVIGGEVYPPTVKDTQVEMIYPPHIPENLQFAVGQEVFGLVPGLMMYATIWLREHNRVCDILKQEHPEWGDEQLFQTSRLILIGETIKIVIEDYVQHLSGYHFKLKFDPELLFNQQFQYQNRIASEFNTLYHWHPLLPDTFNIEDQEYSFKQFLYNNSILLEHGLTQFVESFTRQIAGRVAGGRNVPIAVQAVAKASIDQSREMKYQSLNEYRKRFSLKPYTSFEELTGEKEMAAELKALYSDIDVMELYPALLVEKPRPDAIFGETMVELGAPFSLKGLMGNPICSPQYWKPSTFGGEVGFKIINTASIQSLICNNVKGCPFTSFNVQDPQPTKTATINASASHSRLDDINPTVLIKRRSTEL
# [11] = Area under curve (0-24 hr) at a dose of 50 mg/kg in male SD rats; format: ADME, organism-based; design: time < 24 hr, dose 50 mg/kg; details: rat, in vivo
# [12] = Tmax value at a dose of 50 mg/kg in male SD rats; format: ADME, organism-based; design: dose 50 mg/kg; details: rat, in vivo
# [13] = Tmax value at a dose of 100 mg/kg in male SD rats; format: ADME, organism-based; design: dose 100 mg/kg; details: rat, in vivo
# Rattus norvegicus [14] = test: Effective dose against adjuvant-induced arthritis (AA) in SD rats upon peroral administration (QD); format: functional; details: po
# [15] = Cmax value at a dose of 100 mg/kg in male SD rats; format: ADME, organism-based; design: dose 100 mg/kg; details: rat, in vivo
# [16] = Cmax upon oral administration in male Beagle dog at 10 mg/kg; format: ADME, organism-based, Canis lupus familiaris; design: dose 10 mg/kg, route oral; details: in vivo
compound,measurement,setting,value
CC1(C)OC(c2ccc(S(C)(=O)=O)cc2)=C(c2cccc(Cl)c2)C1=O,Tmax,[1],1.5 h
same,AUC(0-t) at 24 h,[2],12700 ng·h/mL
same,Cmax,[3],1390 ng/mL
C[S+]([O-])c1ccc(C2=C(c3cc(F)cc(F)c3)C(=O)C(C)(C)O2)cc1 (stereo not drawn),inhibition in vivo at 0.1 mg/kg/day,Rattus norvegicus [4],40%
same,ED50,Rattus norvegicus [5],~0.2 mg/kg/day
same,inhibition in vivo at 0.3 mg/kg/day,Rattus norvegicus [6],76%
CC1(C)OC(c2ccc(S(C)(=O)=O)cc2)=C(c2cc(F)cc(F)c2)C1=O,IC50,[7],13.2 µM
same,AUC(0-t) at 24 h,[8],487000 ng·h/mL
same,Tmax,[1],2 h
same,Cmax,[9],11700 ng/mL
same,IC50,[10],0.0529 µM
same,AUC(0-t) at 24 h,[11],359000 ng·h/mL
same,Tmax,[12],4.3 h
same,AUC(0-t) at 24 h,[2],23100 ng·h/mL
same,Tmax,[13],5 h
same,ED50,Rattus norvegicus [14],0.03 mg/kg/day
same,Cmax,[3],2580 ng/mL
same,Cmax,[15],24900 ng/mL
same,Cmax,[16],130 ng/mL
C[S+]([O-])c1ccc(C2=C(c3cccc(Cl)c3)C(=O)C(C)(C)O2)cc1 (stereo not drawn),Tmax,[1],0.5 h
same,AUC(0-t) at 24 h,[2],3610 ng·h/mL
same,Cmax,[3],460 ng/mL
COc1ccc2c(c1)c(CC(=O)O)c(C)n2C(=O)c1ccc(Cl)cc1 [INDOMETHACIN],inhibition in vivo at 0.3 mg/kg/day,Rattus norvegicus [6],60%
